Test results from US20070269531A1, “Non-Steroid Anti-Inflammatory Agents with Vitamins, Minerals, and Dietary Supplements for the Prevention and Treatment of Primary, Secondary and Tertiary Cancer” (priority 2004, published 2007).
Values joined by “and” are separate entries in the source; they are usually repeats but may differ in a detail not shown here. Equal values may be shown once. Read-outs that look alike come from different tables or passages of the source.

Experiments:
MC-26 tumor [1] = conditions: for overall survival rate: day 50
Description: Starting on day 7 after tumor cell inoculation, mice were randomly divided into eight groups as follow:
Group 1: control; control chow; 0.9% NaCl injected intraperitoneally (IP) on days 9, 11, 15, 18, 23, and 28; and 5% IP glucose on days 8, 12, 15, 19, 22, and 25.
Group 4: irinotecan alone; control chow; irinotecan 30 mg/kg on days 8, 12, 15, 19, 22, and 25; and 0.9% NaCl on days 9, 11, 15, 18, 23, and 28.
The date and number of animal in each group were recorded for survival analysis.

[2] = meta-analysis (Lewis et al., 2002); cited from earlier work
HUVECs = test: In vitro angiogenesis (tube formation) assay; type: cell-based, human; conditions: 1000 μM
Description: An in vitro anigiogenesis assay was performed according to the protocol provided by manufacturer (Chemicon, Temecula, Calif.) and described previously ([…] et al., 2004; […] et al., 2004). […] Microscopic digital images were taken, and cumulative tube length was measured using SpotTM3.5.6.

HT-29 cells PGE2 levels = test: Prostaglandin E2 ELISA, HT-29 conditioned medium; type: cell-based, human; conditions: 24 h
Description: (§1) The transplantable mouse CRC cell line MC-26 (Singh et al., 1986) was obtained from Dr. K. K. Tanabe (Massachusetts General Hospital, Boston, Mass.), and the human colorectal adenocarcinoma cell line HT 29 was obtained from ATCC. MC-26 cells and HT-29 were maintained in Dulbecco's modified Eagle's medium (DMEM; Life Technologies, Inc, Gaithersburg, Md.) and McCoy's 5A medium, respectively, supplemented with 10% fetal calf sertum plus antibiotics at 37° C. in a humidified atmosphere of 95% air/5% C02. Human umbilical vein endothelial cells (HUVECs) was purchased from Canibrex (Walkersville, Md.) and maintained in EGM-2 medium (Cambrex).
(§2) Prostaglandin E2 (PGE2), the major metabolite of arachidonic acid metabolism, was measured by ELISA (Cayman Chemical, Ami Arbor, Mich.), using conditional cell culture medium, according to the protocol provided by manufacturer. Measurements were made in triplicate in separate experiments.

[3] = Plasma ibuprofen concentration in mice fed ibuprofen chow; type: in vivo, mouse; conditions: mice fed chow containing 1360 mg/kg; blood on days 7 and 14
Description: Ibuprofen was purchased from Sigma, and pellet-formed chow containing ibuprofen was prepared by Harlan Teklad (Madison, Wis.). Blood was drawn on day 7 and 14 by tail bleeding, and serum was separated from the whole blood and frozen at −70° C. until analysis.
The plasma samples were analyzed by a quantified liquid chromatography-tandem mass spectrometry (LC/MS/MS) method. Sample preparation was performed using protein precipitation.
A […] aliquot of internal standard working solution (3000 ng/mL of Phenacetin I.S. in acetonitrile) was added to 25 μL of plasma. Each sample was then vortexed and centrifuged for 15 min at a speed of 13,000 rpm at 4° C.
After centrifugation, 150 μL of the supernatant was transferred into an HPLC vial, and aliquots of 5 μL were injected using a Perkin Elmer 200 Series autosampler (Perkin Elmer: Norwalk Conn.). The loading and analytical columns were a Zorbax Extend C18 (4.6×12.5 mm, 5 μdp; Agilent Technologies: Palo Alto, Calif.) and a Waters Xterra C 18 (3.9×20 mm, 3.5 μdp; Waters Corporation: Milfaird, Mass.), respectively. […] The column effluent was analyzed by selected reaction monitoring using a triple quadruple mass spectrometer (Micromass Quattro Ultima; Manchester, UK) equipped with an electrospray ion source operating in negative ion mode.

MC-26 tumor [4] = test: Subcutaneous MC-26 tumor model, single agent
[5] = cited from earlier work
HUVEC = HUVEC cell proliferation (MTT); type: cell-based, human; conditions: 1000 μM, 24 h
Description: as §1
(§3) In Vitro cell proliferation was assessed using a CellTiter 96®AQ One Solution Cell Proliferation Assay kit (Promega). 1-3×10^4 cells/ml were plated in 96-well microtiter plates and incubated overnight. […] 20 μl of MTS tetrazolium solution were added to each well, and the cells were further incubated at 37° C. for 1 h, at which time the reactions were stopped by the addition of 10% SDS. The absorbance at wavelength 490 nm was measured using an EX800 microplate reader (Bio-Tek, Highland, Wis.).

MC-26 cell PGE2 levels = test: Prostaglandin E2 ELISA, MC-26 conditioned medium; type: cell-based, mouse; conditions: MC-26 cells, 1000 μM, 24 h
Description: as §1, §2

HT-29 cells = test: In vitro cell proliferation assay (MTT), HT-29; type: cell-based, human; conditions: HT-29, 1000 μM, 72 h
Description: as §1, §3

MC-26 liver metastasis = test: Experimental liver metastasis model (subsplenic MC-26 injection); type: in vivo, mouse; conditions: 1360 mg/kg chow for 14 days
Description: The incidence and extent of liver metastasis were then recorded.

[6] = Gross necroscopic examination for GI mucosal injury; type: in vivo, mouse; conditions: mice consuming chow containing ibuprofen
[7] = tested on: CD31 positive microvessels; test: CD31 microvessel immunohistochemistry of tumor sections; type: in vivo, mouse; conditions: P=0.059
Description: To assess anigiogenesis in tumor tissues, frozen sections were made and microvessels were stained with anti-mouse CD31 mnonocolonal antibodies (BD transduction laboratories). The specimens were incubated with secondary antibody for 1 h at 37° C. and stained by the avidin-biotin peroxide complex (ABC) method using an ABC staining kit (Santa Cruz Biotech, Santa Cruz, Calif.). They were visualized by 3,3′-diammobenzidme (DAB) and counlterstained with hematoxyhn.

MC-26 cells = test: In vitro cell proliferation assay (MTT), MC-26; type: cell-based, mouse; conditions: 72 h
Description: as §1
In Vitro cell proliferation was assessed using a CellTiter 96®AQ One Solution Cell Proliferation Assay kit (Promega). 1-3×10^4 cells/ml were plated in 96-well microtiter plates and incubated overnight. […]

HT-29 tumor = test: HT-29 human xenograft CRC model in nude mice; conditions: throughout the period of investigation

O=c1[nH]cc(F)c(=O)[nH]1 [5-FU, Fluorouracil]
overall survival rate (MC-26 tumor [1]; 5-FU given with leucovorin): 30%
tumor volume (MC-26 tumor [1]; treatment day 7 to 28, 5-FU given with leucovorin, control 1491.3±862): 499±234 mm^3

CCc1c2c(nc3ccc(OC(=O)N4CCC(N5CCCCC5)CC4)cc13)-c1cc3c(c(=O)n1C2)COC(=O)[C@]3(O)CC [CPT-11, Irinotecan]
average body weight (MC-26 tumor [1]; day 28, average over the named groups, control 19.65±1.24): 23.1 ± 1.72 g
overall survival rate (MC-26 tumor [1]; 5-FU given with leucovorin): 80%
survival compared to control mice and other regimens (MC-26 tumor [1]; mouse, in vivo): significantly prolonged

CN1C(C(=O)Nc2ccccn2)=C(O)c2ccccc2S1(=O)=O [piroxicam]
odds ratio, serious upper GI bleeding [2]: 13.1

CC(C)Cc1ccc(C(C)C(=O)O)cc1 (stereo not drawn) [ibuprofen]
reduction in tube length (HUVECs; 6 h): 40%
tube length (HUVECs; 6 h, control 155.4±21.3): 94.0±24.9 μm
reduction in tube length (HUVECs; 24 h): 88%
tube length (HUVECs; 24 h, control 76.2±13.5): 9.40±6.95 μm
PGE2 levels diminished compared to control (HT-29 cells PGE2 levels): 81.1%
PGE2 level (HT-29 cells PGE2 levels; control 95.6 pg/mL): 18 pg/mL
plasma ibuprofen concentration [3]: ~18,760±7,270 ng/ml and ~20,978±5,966 ng/ml
tumor growth inhibited (MC-26 tumor [4]; chow containing 1360 ppm, summary over mouse and human CRC models): 40-82%
average body weight (MC-26 tumor [4]; day 21, control 20.3±2.6): 24.1 ± 1.73 g
plasma ibuprofen peak concentration ([5]; 300 mg capsule, fasting humans (Halsas et al., 1999)): approximately 27,000 ng/ml
peak plasma concentration (Cmax) ([5]; healthy humans, long-term high-dose 14 mg/kg): 65,000 ng/ml
Cmax ([5]; healthy humans, low dose 2.6 mg/kg): 15,800 ng/ml
Cmax ([5]; healthy humans, moderate dose 7 mg/kg): 34,000 ng/ml
peak plasma ibuprofen concentration ([5]; single dose of 300 mg, humans (Halsas et al., 1999)): ≥ 27,000 ng/mil
MTT levels diminished compared to control (HUVEC): approximately 80%
PGE2 levels diminished compared to control (MC-26 cell PGE2 levels): 70.1%
PGE2 level (MC-26 cell PGE2 levels; control 268.5): 80.0 pg/mL
MTT levels diminished compared to control (HT-29 cells): 26.7%
liver metastases vs control (MC-26 liver metastasis): more prevalent and larger in the control group
liver metastases vs control (MC-26 liver metastasis; listed as IB): Fewer liver metastases
gastroduodenal / GI mucosal injury [6]: no evidence of gastroduodenal mucosal injury
gastroduodenal / GI mucosal injury ([6]; listed as Ibuprofen): No GI mucosal injury
reduction in number of microvessels [7]: ~30%
decrease in MC-26 cell proliferation (MC-26 cells; 125 μM): 1.3%
decrease in MC-26 cell proliferation (MC-26 cells; 250 μM): 5.8%
decrease in MC-26 cell proliferation (MC-26 cells; 500 μM): 11.3%
decrease in MC-26 cell proliferation (MC-26 cells; 1000 μM): 39.8%
body weight vs control (HT-29 tumor): no significant difference in body weight

COc1ccc2cc([C@H](C)C(=O)O)ccc2c1 [naproxen]
odds ratio, serious upper GI bleeding [2]: 9.1

O=C(O)Cc1ccccc1Nc1c(Cl)cccc1Cl [diclofenac]
odds ratio, serious upper GI bleeding [2]: 4.9
